Like-named read-outs stand apart in the source and are kept apart here.

The target of one series is T1, human α5β1 (Homo sapiens, UniProt P05556+P08648).
T1 construct: hα5 1 995; hβ1 1 728; made in house; host or cells: Expi293
As to the kind of experiment: AlphaLISA integrin-ligand binding assay. The class given is biochemical. The procedure: (§1) In the AlphaLISA integrin assays, we used a HEPES based buffer (25 mM HEPES pH 7.4, 137 mM NaCl, 1 mM MgCl2, 1 mM MnCl2, 2 mM CaCl2, 2.7 mM KCl, and 0.05% Tween-20). Optimal assay conditions were determined with a titration of the reagents for signal noise ratio (S/N), linear range, etc. For the respective integrins, we used the final concentrations described in Supplemental Table S3. Briefly, the testing antibody (8 μL) was added as a 4x (of Final testing concentration) solution in the HEPES buffer described previously into a 384w AlphaPlate (Perkin Elmer #6005350). Then the integrin and ligand were added sequentially as 8x (4 μL each). Plates were sealed and incubated at room temperature for 2 h. Then 4 × acceptor bead solution (8 μL) was added, and the plates were resealed and incubated at RT for 1 h. Finally, 4 × (8 μL) donor beads solution was added in a darkened room and incubated for 45 min at room temperature. Plates were read on the Envision (Perkin Elmer) in AlphaScreen mode within 3 h of donor bead addition.
(§2) Supplemental Table S3. integrin AlphaLIS A assay reagents and conditions Human A l phal i sa Inte gri n A ssays: Fi nal Condi ti ons […]
(§3) ( batch de pe nde nt) anti body A l phaLi sa A cce ptor havb1 1. 4 nM 1. 0 nMα - Fi brone cti n human Fi brone cti n n/a A cce ptor be ads/ Pe rki n 10. 0 ug/ m 10. 0 ug/ m […]
(§4) havb3 3. 0 nM 10. 0 nMhuman V i trone cti n- GST α - GS T A cce p t o r ug/ m Stre ptavi di n Donor ug/ m tagge d n/a be ads/ Pe rki n 15. 0 l be ads/ Pe rki n El me r 15. 0 l […]
(§5) havb6 0. 1 nM 0. 5 nM 3. […]
(§6) Mouse A l phal i sa Inte gri n A ssays: Fi nal Condi ti ons […]
(§7) m aV b 1 4. 3 nM 1. 0 nMmouse f i brone cti n A bcam α - Fi brone cti n ( Rabbi t […]
(§8) 0 nM 5. […] 0nM be ads/ Pe rki n El me r […]
(§9) m aV b 6 1. 4 nM 2. 5 nMmouse LA P- 6Hi s α - 6x HI S / P e rk i n El m e r ug/ m ug/ m m aV b 8 1. 0 nM 2. 5 nMChe mpartne rn/a( A L 128) 15 l 15 l
(In Alpha technology, singlet oxygen from a donor bead excites a nearby acceptor bead.)

A further series deals with T2, mouse αvβ8 (Mus musculus, UniProt P43406+Q0VBD0).
T2 construct: mαV 1 988; m β8 1 679; made in house; host or cells: Expi293
T2 sequence (P43406 31-988): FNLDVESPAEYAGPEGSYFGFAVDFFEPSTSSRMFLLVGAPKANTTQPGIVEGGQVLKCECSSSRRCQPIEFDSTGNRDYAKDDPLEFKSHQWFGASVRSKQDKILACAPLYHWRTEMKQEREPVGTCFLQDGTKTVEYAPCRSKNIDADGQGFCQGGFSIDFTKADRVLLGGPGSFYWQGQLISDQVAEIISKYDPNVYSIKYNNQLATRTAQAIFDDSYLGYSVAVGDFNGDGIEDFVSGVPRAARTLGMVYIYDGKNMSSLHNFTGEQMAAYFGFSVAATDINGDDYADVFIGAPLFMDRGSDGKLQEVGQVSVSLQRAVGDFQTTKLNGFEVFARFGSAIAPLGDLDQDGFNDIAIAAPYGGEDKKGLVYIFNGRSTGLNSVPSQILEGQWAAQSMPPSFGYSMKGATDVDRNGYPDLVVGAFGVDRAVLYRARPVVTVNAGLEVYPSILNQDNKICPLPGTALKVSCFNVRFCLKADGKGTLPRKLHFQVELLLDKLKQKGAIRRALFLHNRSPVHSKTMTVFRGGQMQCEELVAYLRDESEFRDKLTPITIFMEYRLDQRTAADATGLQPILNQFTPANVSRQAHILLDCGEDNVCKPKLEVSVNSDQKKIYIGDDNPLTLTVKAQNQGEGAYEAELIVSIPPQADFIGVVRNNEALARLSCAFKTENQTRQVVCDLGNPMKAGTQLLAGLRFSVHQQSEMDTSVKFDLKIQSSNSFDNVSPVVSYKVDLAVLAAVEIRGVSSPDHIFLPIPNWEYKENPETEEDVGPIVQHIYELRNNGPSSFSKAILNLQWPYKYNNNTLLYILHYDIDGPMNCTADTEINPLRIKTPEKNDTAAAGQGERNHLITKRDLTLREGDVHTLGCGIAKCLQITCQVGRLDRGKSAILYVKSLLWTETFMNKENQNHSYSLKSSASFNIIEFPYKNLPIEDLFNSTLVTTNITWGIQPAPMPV
T2 sequence (Q0VBD0 22-679): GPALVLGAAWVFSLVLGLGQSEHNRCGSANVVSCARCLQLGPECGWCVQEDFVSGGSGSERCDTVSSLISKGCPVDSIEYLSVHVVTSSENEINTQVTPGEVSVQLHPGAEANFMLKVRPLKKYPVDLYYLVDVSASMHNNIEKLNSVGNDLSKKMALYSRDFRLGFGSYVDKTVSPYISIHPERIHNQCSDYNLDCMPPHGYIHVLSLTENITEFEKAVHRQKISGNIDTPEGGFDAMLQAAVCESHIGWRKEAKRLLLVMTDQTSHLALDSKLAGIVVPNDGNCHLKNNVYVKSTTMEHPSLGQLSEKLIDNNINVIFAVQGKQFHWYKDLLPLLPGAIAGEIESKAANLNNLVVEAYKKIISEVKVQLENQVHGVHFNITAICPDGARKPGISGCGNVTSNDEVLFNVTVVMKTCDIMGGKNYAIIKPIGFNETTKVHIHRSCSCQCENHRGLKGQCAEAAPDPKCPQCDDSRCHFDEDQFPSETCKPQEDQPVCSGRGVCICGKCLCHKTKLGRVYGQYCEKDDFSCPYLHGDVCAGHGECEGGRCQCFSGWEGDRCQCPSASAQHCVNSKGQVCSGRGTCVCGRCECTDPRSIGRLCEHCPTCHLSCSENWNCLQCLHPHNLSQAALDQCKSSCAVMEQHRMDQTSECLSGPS
As to the kind of experiment: AlphaLISA integrin-ligand binding assay. The note with it: Fig. 4B; read-out: IC50 Mouse integrin AlphaLISA assays: mαvβ8. Format: biochemical. On the procedure:
as §1, §2, §3, §4, §5, §6, §7, §8, §9

For the next series, the target named is T3, mouse αvβ5 (Mus musculus, UniProt O70309+P43406).
T3 construct: mαV 1 988; m β5 1 719; made in house; host or cells: Expi293
T3 sequence (P43406 31-988): as the sequence (P43406 31-988) above
T3 sequence (O70309 24-719): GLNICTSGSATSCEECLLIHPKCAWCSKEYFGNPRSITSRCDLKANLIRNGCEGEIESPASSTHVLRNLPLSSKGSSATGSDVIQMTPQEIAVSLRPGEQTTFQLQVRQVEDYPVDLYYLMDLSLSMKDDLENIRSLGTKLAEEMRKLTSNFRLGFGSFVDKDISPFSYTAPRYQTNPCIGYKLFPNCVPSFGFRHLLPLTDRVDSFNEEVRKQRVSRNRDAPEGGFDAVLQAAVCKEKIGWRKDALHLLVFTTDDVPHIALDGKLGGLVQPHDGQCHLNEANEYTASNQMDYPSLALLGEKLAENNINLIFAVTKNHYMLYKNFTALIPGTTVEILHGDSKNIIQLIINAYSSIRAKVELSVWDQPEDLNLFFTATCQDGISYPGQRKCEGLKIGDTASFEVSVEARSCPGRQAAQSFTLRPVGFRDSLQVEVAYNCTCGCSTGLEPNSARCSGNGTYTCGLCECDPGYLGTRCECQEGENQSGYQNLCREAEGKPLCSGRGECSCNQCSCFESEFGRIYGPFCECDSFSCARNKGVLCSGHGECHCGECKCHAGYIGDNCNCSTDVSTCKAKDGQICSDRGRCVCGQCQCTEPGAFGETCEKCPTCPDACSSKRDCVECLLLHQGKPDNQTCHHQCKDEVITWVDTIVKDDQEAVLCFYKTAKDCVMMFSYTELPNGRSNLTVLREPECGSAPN
As to the kind of experiment: AlphaLISA integrin-ligand binding assay. The class given is biochemical. Particulars: Fig. 4B; read-out: IC50 Mouse integrin AlphaLISA assays: mαvβ5. On the procedure:
as §1, §2, §3, §4, §5, §6, §7, §8, §9

Series [1] relates to bleomycin-induced lung fibrosis. The experiment in a line: Bleomycin-induced lung fibrosis mouse model. Format: in vivo. The note with it: BLM mice, Nintedanib 60 mpk po qd. On the procedure:
Adult male C57BL/6 mice (Taconic, Rensselaer, NY) were housed in a temperature and humidity-controlled facility with a 12 h light: 12-h dark cycle. Animals had ad libitum access to food (Purina Rodent Chow 5053, LabDiet, St. Louis, MO) and water. All procedures utilizing experimental animals were conducted in accordance with the Guide for the Care and Use of Laboratory Animals, and experimental procedures were reviewed and approved by the Institutional Animal Care and Use Committee at MRL, Kenilworth, NJ. For osmotic minipump implantation, TFA salt of MK-0429 was formulated in 50% DMSO/50% H2O at a concentration of 416 mg/mL. MK-0429 or vehicle solution were filled in minipumps (Alzet, # 1007D, flow rate 0.5 μL/h). Minipumps were placed in mice subcutaneously in a pocket on the back between the shoulder blades. A small incision was made and a subcutaneous pocket formed by blunt dissection. A sterile minipump was inserted into the subcutaneous pocket. The incision was closed with staples or non-absorbable suture or absorbable (subcuticular) suture. The minipumps were used for continuous drug delivery for 2 weeks. Mice at 12 ~ 13 weeks of age were randomized to 5 groups: saline, bleomycin instillation with vehicle (osmotic minipump), bleomycin instillation with MK-0429 treatment, bleomycin instillation with vehicle oral treatment, and bleomycin instillation with Nintedanib treatment. All mice were anaesthetized with isoflurane. Bleomycin was dosed by intra-tracheal (i.t) instillation in a volume of 50 µl, at a dose of 1unit /kg body weight. After instillation, mice were kept in a heads-up position for 2–5 min before putting into cages. MK-0429 (200 mg/kg) was administered by Osmotic pump from day 5 to day 14 and Nintedanib (60 mg/kg) was administered, p.o., q.d., for 14 days. Vehicle was dosed orally at 10 am daily from the day 5 to the end of the studies and dosing volume was 10 mL/kg. For plasma PK analysis, an aliquot of 50 μL plasma was spiked into a 96-well plate, and 200 μL of acetonitrile containing internal standard were added for protein precipitation. The mixture was vortexed, centrifuged at 4000 rpm for 20 min. 50 μL of supernatant were mixed with 200 μl H2O and the final solution were injected for LC–MS/MS analysis. The methods for quantitative analysis were developed on UPLC (Waters) chromatographic system equipped with an API4000 QTrap mass spectrometer (Applied Biosystems, Concord, Ontario, Canada). Analyst 1.5 software packages (Applied Biosystems) were used to control the LC–MS/MS system and data acquisition and processing. Upon completion of the study, animals were euthanized and tissues were collected for histological assessment. Lung tissues were perfused with 10% formalin, fixed for 24 h, and then paraffin embedded. Tissue sections were stained with hematoxylin & eosin (H&E) and Masson’s trichrome, subsequently evaluated under light microscope. The severity of histopathologic changes and fibrosis in the lung were graded as described previously by pathologists[51],[52]. Following deparaffinization and rehydration, each lung tissue section was processed to identify αSMA deposition by immunohistochemistry. The primary antibodies used were αSMA antibody from Sigma. The Aperio ScanScope XT Slide Scanner (Aperio Technologies) system was used to capture whole slide digital images with a 20 × objective. Digital images were managed using Aperio Spectrum. The positive stains were identified and quantified using a macro created from a color deconvolution algorithm (Aperio Technologies). Statistical analysis was performed by using One-way ANOVA followed by Tukey’s test.

For the next series, the system named is osteoporosis patients. On the set-up: method as in PMID 15687321, PMID 20398037. Particulars: 52 weeks; cited from earlier work.
Where [2] appears, read: treatment from day 5 for 14 days, MK-0429 200 mpk osmotic minipump, vs BLM-vehicle.

T1 sequence (P08648 42-995): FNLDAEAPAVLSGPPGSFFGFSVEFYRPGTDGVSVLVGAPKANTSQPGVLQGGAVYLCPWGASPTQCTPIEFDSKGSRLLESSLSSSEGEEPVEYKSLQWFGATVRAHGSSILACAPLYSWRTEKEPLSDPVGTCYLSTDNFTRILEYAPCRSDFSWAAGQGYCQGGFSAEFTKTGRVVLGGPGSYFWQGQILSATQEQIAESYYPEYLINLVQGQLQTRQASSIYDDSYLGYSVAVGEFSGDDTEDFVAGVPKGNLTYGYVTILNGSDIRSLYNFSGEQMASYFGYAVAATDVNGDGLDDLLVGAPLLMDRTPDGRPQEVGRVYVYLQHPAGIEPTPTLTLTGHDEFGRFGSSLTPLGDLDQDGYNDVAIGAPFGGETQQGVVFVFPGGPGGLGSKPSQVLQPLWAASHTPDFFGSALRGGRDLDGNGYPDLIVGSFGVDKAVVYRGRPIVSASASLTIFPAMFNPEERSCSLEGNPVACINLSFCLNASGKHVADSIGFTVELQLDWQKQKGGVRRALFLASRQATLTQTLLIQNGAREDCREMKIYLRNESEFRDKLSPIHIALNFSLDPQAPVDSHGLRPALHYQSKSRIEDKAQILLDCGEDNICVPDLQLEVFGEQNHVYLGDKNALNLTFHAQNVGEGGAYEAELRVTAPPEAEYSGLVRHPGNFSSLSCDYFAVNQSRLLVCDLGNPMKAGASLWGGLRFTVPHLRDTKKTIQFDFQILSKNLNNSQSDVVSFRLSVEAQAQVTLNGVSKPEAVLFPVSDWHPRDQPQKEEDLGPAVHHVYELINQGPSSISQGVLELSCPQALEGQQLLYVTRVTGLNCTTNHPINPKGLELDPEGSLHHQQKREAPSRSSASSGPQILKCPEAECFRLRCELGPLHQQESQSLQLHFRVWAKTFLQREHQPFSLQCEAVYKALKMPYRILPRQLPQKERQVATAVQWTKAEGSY
T1 sequence (P05556 21-728): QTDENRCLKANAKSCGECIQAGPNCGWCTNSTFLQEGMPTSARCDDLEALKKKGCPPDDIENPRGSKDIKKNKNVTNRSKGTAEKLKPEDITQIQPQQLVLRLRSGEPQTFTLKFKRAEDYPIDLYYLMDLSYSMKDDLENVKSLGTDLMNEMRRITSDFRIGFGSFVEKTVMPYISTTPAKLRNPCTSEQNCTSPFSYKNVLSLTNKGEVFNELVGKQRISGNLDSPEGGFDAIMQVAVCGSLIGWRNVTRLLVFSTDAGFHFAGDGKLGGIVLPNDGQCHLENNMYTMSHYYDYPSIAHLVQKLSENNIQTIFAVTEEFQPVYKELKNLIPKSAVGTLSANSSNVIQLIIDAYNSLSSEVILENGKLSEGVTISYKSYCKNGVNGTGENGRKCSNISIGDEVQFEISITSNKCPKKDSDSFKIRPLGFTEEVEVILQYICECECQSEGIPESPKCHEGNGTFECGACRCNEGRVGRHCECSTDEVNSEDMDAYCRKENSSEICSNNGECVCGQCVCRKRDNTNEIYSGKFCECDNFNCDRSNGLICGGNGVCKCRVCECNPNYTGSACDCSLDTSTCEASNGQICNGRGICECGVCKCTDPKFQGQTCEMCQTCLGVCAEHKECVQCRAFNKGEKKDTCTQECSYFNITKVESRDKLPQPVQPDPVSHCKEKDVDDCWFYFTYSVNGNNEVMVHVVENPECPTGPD

With `COc1ccc(C(CC(=O)O)N2CCN(CCCc3ccc4c(n3)NCCC4)C2=O)cn1` (stereo not shown) [MK-0429], the IC50 (commonly the concentration that gives 50% inhibition) at human α5β1 (Fig. 3D, assay optimisation, read-out: IC50 human α5β1 AlphaLISA) worked out at 17.3 nM; at human α5β1 (Fig. 4B, read-out: IC50 Human integrin AlphaLISA assays: hα5β1), 26.5 nM; at mouse αvβ8, 5.3 nM; at mouse αvβ5, 48.3 nM. Also, the “TIMP-1 content in BALF” value in series [1] (14 days treatment, MK-0429 200 mpk minipump) is “did not reach statistical significance”. Moreover, the “Modified Ashcroft score of mouse lung” value in series [1] (setting [2]) was “significantly decreased”. In series [1] (setting [2]), the “Total inflammation area in mouse lungs” value is reported as “nonstatistical significant decrease”. For the same molecule, the “αSMA immunohistochemistry in lung” value in series [1] (setting [2]) is given as “significantly decreased”. In addition, the “Body weight vs bleomycin group” value in series [1] (MK-0429 200 mpk minipump) was “no significant body weight difference”. The Safety profile result with osteoporosis patients is given as “relatively well-tolerated”.

The record behind these values is article PMC7822819, “Discovery of a new class of integrin antibodies for fibrosis” (Scientific Reports, 2021).
